We go through one compound from article PMC11796369, “Genetic and biochemical characterization of a radical SAM enzyme required for post-translational glutamine methylation of methyl-coenzyme M reductase” (mBio, 2025).

In this test the target is T1, MmMgmA (Methanothermobacter marburgensis, UniProt D9PY35).
T1 construct: gene MTBMA_c15540; full-length; E. coli BL21(DE3) from codon-optimised gene in pET28a, reconstituted with 4Fe-4S and cobalamin (structure, kinetics); also TAP-tagged from M. acetivorans (native cobamide, peptide assay)
T1 sequence (D9PY35 1-430): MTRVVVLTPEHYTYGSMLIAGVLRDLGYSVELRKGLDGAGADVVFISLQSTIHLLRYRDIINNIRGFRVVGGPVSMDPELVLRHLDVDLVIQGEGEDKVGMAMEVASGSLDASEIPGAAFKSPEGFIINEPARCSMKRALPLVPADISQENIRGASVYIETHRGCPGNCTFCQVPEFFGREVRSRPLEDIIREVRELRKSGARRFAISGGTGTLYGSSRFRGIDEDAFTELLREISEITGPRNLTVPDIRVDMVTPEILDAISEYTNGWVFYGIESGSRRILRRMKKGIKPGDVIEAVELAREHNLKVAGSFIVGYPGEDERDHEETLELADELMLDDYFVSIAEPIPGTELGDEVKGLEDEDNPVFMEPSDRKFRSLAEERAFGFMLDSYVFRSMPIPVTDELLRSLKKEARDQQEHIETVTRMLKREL
In words: UHPLC-MS of […]'-dAH and SAH. Type of test: biochemical. The conditions noted are these: reconstituted enzyme; 500 µM SAM, 200 µM McrA peptide, 2 mM Ti citrate, 250 mM KCl, 50 mM HEPES pH 7.5.

On to `C[S+](CC[C@H](N)C(=O)O)C[C@H]1O[C@@H](n2cnc3c(N)ncnc32)[C@H](O)[C@@H]1O` (stereo partly shown) [SAM], for which the “UHPLC-MS of 5'-dAH and SAH” value is “The reconstituted enzyme was highly active”.
